Data as given in patent US9120749B2, “Quinoline derivatives and MELK inhibitors containing the same” (ONCOTHERAPY SCIENCE, INC., priority 2010, dated 2015).

Tests used:
MELK = MELK (Homo sapiens, UniProt Q14680); assay: Kinase assay: MELK activity, phosphorylation of FITC-labeled histone H3 peptide measured by IMAP fluorescence polarization; type: biochemical; settings: 50 micro-M ATP, FITC-labeled histone H3 peptide substrate, IMAP fluorescence polarization; read-out: IC50 (μM) (kinase assay)
Summary of the method: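 FP readout: FITC-histone H3 peptide phosphorylation, read 0.5 h (RT) after stopping with 3x volume of IMAP progressive binding solution. Final DMSO 1%.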

BT-549 cells = assay: Cell-based assay: anti-proliferative activity, Cell Counting Kit-8, 72 hours (BT-549); settings: Homo sapiens, BT-549, 72 h, BT549 cells, MELK-expressing; Cell Counting Kit-8 at 72 hours
Description: To evaluate the expression status of MELK in several cell lines, western blot analysis was performed using crude cell lysate collected from those cells. Anti-MELK antibody (clone 31, BD Biosciences) was used to visualize the expression.
Active candidate inhibitors against MELK were evaluated for their target-specific cytotoxicity using T47D, A549, BT-549, and HT-1197 cells was used for negative control. 100 micro-L of cell suspension was seeded onto 96-well microtiter plate (ViewPlate-96FTC, PerkinElmer). The initial cell concentration of T47D, A549, BT-549, and HT-1197 were 3,000 cells/well, 2,000 cells/well and 2,500 cells/well, respectively. Cellular growth was determined using Cell Counting Kit-8 (DOJINDO) at 72 hours after the exposure of the candidate inhibitors. […] Accurate IC50 values were calculated as described previously.

T47D cells = assay: Cell-based assay: anti-proliferative activity, Cell Counting Kit-8, 72 hours (T47D); settings: Homo sapiens, T47D, 72 h, MELK-expressing, Cell Counting Kit-8 at 72 hours
Summary of the method: (§1)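 Cellular growth is read by CCK-8 colorimetric kit 72 h after inhibitor addition to seeded cells, and IC50 values are derived from the resulting data; MELK protein levels in these lines are checked beforehand by immunoblotting whole crude lysate.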

A549 cells = assay: Cell-based assay: anti-proliferative activity, Cell Counting Kit-8, 72 hours (A549); settings: Homo sapiens, A549, 72 h, MELK-expressing, Cell Counting Kit-8 at 72 hours
Summary of the method: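 Cell Counting Kit-8 read-out of A549 growth after 72 hours of inhibitor exposure, cells plated in 96-well format. Values reported as IC50.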

HT-1197 cells = assay: Cell-based assay: anti-proliferative activity, Cell Counting Kit-8, 72 hours (HT-1197, negative control without MELK expression); settings: Homo sapiens, HT1197, 72 h, HT1197 cells, no MELK expression (negative control); Cell Counting Kit-8 at 72 hours
Summary of the method: as §1

Chain of MELK (Q14680 whole entry, looked up): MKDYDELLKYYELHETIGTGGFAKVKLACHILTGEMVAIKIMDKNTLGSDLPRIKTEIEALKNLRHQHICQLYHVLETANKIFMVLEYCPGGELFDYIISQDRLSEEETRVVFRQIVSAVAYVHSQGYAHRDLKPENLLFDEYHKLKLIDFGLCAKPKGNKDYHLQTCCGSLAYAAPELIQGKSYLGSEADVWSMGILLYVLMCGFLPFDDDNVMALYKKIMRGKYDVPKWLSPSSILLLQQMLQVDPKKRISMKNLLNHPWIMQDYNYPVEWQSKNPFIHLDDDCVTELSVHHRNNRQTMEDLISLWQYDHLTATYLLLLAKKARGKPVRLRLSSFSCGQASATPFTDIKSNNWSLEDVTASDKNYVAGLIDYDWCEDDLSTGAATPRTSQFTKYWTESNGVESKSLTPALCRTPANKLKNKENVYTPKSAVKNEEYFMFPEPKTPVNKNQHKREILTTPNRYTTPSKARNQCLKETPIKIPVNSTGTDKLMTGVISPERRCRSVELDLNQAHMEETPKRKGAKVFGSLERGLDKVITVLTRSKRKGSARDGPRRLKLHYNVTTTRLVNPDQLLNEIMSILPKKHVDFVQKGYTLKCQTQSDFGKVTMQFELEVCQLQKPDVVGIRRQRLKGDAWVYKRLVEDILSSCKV

Row | SMILES | IC50 (MELK) | IC50 (BT-549 cells) | IC50 (T47D cells) | IC50 (A549 cells) | IC50 (HT-1197 cells)
1 | COc1cc(-c2ccc3ncc(C(=O)CC(C)C)c(N[C@H]4CC[C@H](N(C)C)CC4)c3c2)cc(Cl)c1O [Example 348, 1-{6-(3-Chloro-4-hydroxy-5-methoxyphenyl)-4-[trans-4-(dimethylamino)cyclohexylamino]quinolin-3-yl}-3-methylbutan-1-one] | 0.0043 µM | 0.93 µM | 0.41 µM | 0.47 µM | 3 µM
2 | COc1cc(-c2ccc3ncc(C(=O)C4CC4)c(N4CCC(C(C)N(C)C)CC4)c3c2)ccc1O (stereo not drawn) [Example 187, Cyclopropyl(4-{4-[1-(dimethylamino)ethyl]piperidin-1-yl}-6-(4-hydroxy-3-methoxyphenyl)quinolin-3-yl)methanone] | 0.0034 µM | 2 µM | 0.44 µM | 0.65 µM | 2.2 µM
3 | N[C@H]1CC[C@H](Nc2c(C(=O)C3CC3)cnc3ccc(-c4cc(F)c(O)c(F)c4)cc23)CC1 [Example 156, {4-[trans-4-Aminocyclohexylamino]-6-(3,5-difluoro-4-hydroxyphenyl)quinolin-3-yl}(cyclopropyl)methanone] | 0.023 µM | 0.16 µM | 0.095 µM | 0.88 µM | 3.1 µM
4 | N#Cc1ccc(-c2ccc3ncc(C(=O)C4CC4)c(N[C@H]4CC[C@H](N)CC4)c3c2)s1 [Example 119, 5-{4-[trans-4-Aminocyclohexylamino]-3-(cyclopropanecarbonyl)quinolin-6-yl}thiophene-2-carbonitrile] | 0.046 µM | 14 µM | 8.8 µM | 5.4 µM | 8 µM
5 | CC(C)C(=O)c1cnc2ccc(-c3ccc(O)c(Cl)c3)cc2c1N[C@H]1CC[C@H](N)CC1 [Example 219, 1-{4-[trans-4-Aminocyclohexylamino]-6-(3-chloro-4-hydroxyphenyl)quinolin-3-yl}-2-methylpropan-1-one] | 0.023 µM | 0.25 µM | 0.11 µM | 0.32 µM | 1.2 µM
6 | COc1cc(-c2ccc3ncc(C(=O)C4CC4)c(NCC4CCN(C)CC4)c3c2)cc(Cl)c1O [Example 201, {6-(3-Chloro-4-hydroxy-5-methoxyphenyl)-4-[(1-methylpiperidin-4-yl)methylamino]quinolin-3-yl}(cyclopropyl)methanone] | 0.0034 µM | 1.8 µM | 0.76 µM | 0.73 µM | 7.4 µM
7 | COc1cc(-c2ccc3ncc(C(=O)C4CC4)c(N[C@H]4CC[C@H](CN(C)C)CC4)c3c2)cc(Cl)c1O [Example 316] | 0.011 µM | 1.3 µM | 0.5 µM | 0.32 µM | 6.3 µM
8 | CCN(CC)[C@H]1CC[C@@H](Nc2c(C(=O)C3CC3)cnc3ccc(-c4cc(Cl)c(O)c(OC)c4)cc23)CC1 [Example 311, {6-(3-Chloro-4-hydroxy-5-methoxyphenyl)-4-[cis-4-(diethylamino)cyclohexylamino]quinolin-3-yl}(cyclopropyl)methanone] | 0.0032 µM | 1.5 µM | 0.51 µM | 0.21 µM | 7.6 µM
9 | N[C@H]1CC[C@H](Nc2c(C(=O)C3CC3)cnc3ccc(-c4cn[nH]c4)cc23)CC1 [Example 213, {4-[trans-4-Aminocyclohexylamino]-6-(1H-pyrazol-4-yl)quinolin-3-yl}(cyclopropyl)methanone] | 0.067 µM | 1.7 µM | 0.89 µM | 5.1 µM | 14 µM
